Test results from patent US20240228458A1, “PYRIMIDINE DERIVATIVE HAVING PROTEIN KINASE INHIBITORY ACTIVITY, AND THERAPEUTIC PHARMACEUTICAL COMPOSITION COMPRISING SAME” (THERAPEX CO., LTD., priority 2021, published 2024).

Legend:
Format in all cases: cell-based
[1] = test system: Ba/F3 cells expressing EGFR-wt; assay: Growth inhibition (GI50) of Ba/F3 cells expressing EGFR-wt, Celltiter glo; settings: Mus musculus, BaF3, 72 h
Method in brief: (§1)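 We seed Ba/F3 transfectants at 100,000 cells/ml, dose them with ten 4-fold compound dilutions (2 mM top stock, 0.5% DMSO) after 4 h, and culture for 72 h at 37 °C. CellTiter-Glo then reports viable cell number, from which the GI50 is fitted.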

[2] = test system: Ba/F3 cells expressing del19/T790M/C797S (EGFR-DTC); assay: Growth inhibition (GI50) of Ba/F3 cells expressing del19/T790M/C797S (EGFR-DTC), Celltiter glo; settings: Mus musculus, BaF3, 72 h
Method in brief: as §1

[3] = test system: Ba/F3 cells expressing L858R/T790M/C797S (EGFR-LTC); assay: Growth inhibition (GI50) of Ba/F3 cells expressing L858R/T790M/C797S (EGFR-LTC), Celltiter glo; settings: Mus musculus, BaF3, 72 h
Method in brief: as §1

[4] = test system: Ba/F3 cells expressing del19/T790M (EGFR-DT); assay: Growth inhibition (GI50) of Ba/F3 cells expressing del19/T790M (EGFR-DT), Celltiter glo; settings: Mus musculus, BaF3, 72 h
Method in brief: as §1

[5] = test system: Ba/F3 cells expressing L858R/T790M (EGFR-LT); assay: Growth inhibition (GI50) of Ba/F3 cells expressing L858R/T790M (EGFR-LT), Celltiter glo; settings: Mus musculus, BaF3, 72 h
Method in brief: as §1

[6] = test system: parental Ba/F3 cell line; assay: Growth inhibition (GI50) of the parental Ba/F3 cell line (not introduced with EGFR variants), Celltiter glo; settings: Mus musculus, BaF3, 72 h, parental Ba/F3 cells
Method in brief: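 Viable cell count by CellTiter-Glo after 72 h at 37 °C gave GI50 values (μM, 50% growth inhibition). Cells lacking EGFR variants were seeded at 100,000 cells/ml and dosed 4 h later with 4-fold serial dilutions from a 2 mM stock, 0.5% DMSO.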

SMILES	GI50 [1] [nM]	GI50 [2] [nM]	GI50 [3] [nM]	GI50 [4] [nM]	GI50 [5] [nM]	GI50 [6] [nM]
Cc1cc(Nc2ncc(Br)c(Nc3cc(Cl)ccc3NS(C)(=O)=O)n2)c(Cl)cc1N1CCC(N2CCCN(C)CC2)CC1 [Example 97, N-(2-((5-bromo-2-((2-chloro-5-methyl-4-(4-(4-methyl-1,4-diazepan-1-yl)piperidin-1-yl)phenyl)amino)pyrimidin-4-yl)amino)-4-chlorophenyl)methanesulfonamide]	500 to 2000	25 to 100	1 to 25	25 to 100	25 to 100	500 to 2000
COc1ccc(NS(C)(=O)=O)c(Nc2nc(Nc3cc(C)c(N4CCC(N5CCC(C(F)(F)F)CC5)CC4)cc3OC)ncc2Cl)c1 [Example 234, N-(2-((5-chloro-2-((2-methoxy-5-methyl-4-(4-(trifluoromethyl)-[1,4′-bipiperidin]-1′-yl)phenyl)amino)pyrimidin-4-yl)amino)-4-methoxyphenyl)methanesulfonamide]	2000 to 10000	100 to 500	100 to 500	100 to 500	100 to 500	2000 to 10000
COc1cc(N2CCC(N3CCN(C)CC3)CC2)c(C)cc1Nc1ncc(Cl)c(Nc2cc3c(cc2NS(C)(=O)=O)CCN3C)n1 [Example 276, N-(6-((5-chloro-2-((2-methoxy-5-methyl-4-(4-(4-methylpiperazin-1-yl)piperidin-1-yl)phenyl)amino)pyrimidin-4-yl)amino)-1-methylindolin-5-yl)methanesulfonamide]	500 to 2000	100 to 500	100 to 500	25 to 100	100 to 500	2000 to 10000
CC(=O)Nc1ccc(Cl)cc1Nc1nc(Nc2ccc(N3CCC(N4CCN(C)CC4)CC3)c(F)c2)ncc1Cl [Example 67, N-(4-chloro-2-((5-chloro-2-((3-fluoro-4-(4-(4-methylpiperazin-1-yl)piperidin-1-yl)phenyl)amino)pyrimidin-4-yl)amino)phenyl)acetamide]	100 to 500	25 to 100	25 to 100	100 to 500	100 to 500	2000 to 10000
COc1cc(N2CCC(N3CCCC(N(C)C)C3)CC2)c(C)cc1Nc1ncc(Br)c(Nc2cc(Cl)ccc2NS(C)(=O)=O)n1 (stereo not drawn) [Example 90, N-(2-((5-Bromo-2-((4-(3-(dimethylamino)-[1,4′-bipiperidin]-1′-yl)-2-methoxy-5-methylphenyl)amino)pyrimidin-4-yl)amino)-4-chlorophenyl)methanesulfonamide]	100 to 500	1 to 25	1 to 25	1 to 25	1 to 25	500 to 2000
COc1cc(N2CCC(N3CCN(C)CC3)CC2)c(Cl)cc1Nc1ncc(Br)c(Nc2cc(Cl)c(F)cc2NS(C)(=O)=O)n1 [Example 178, N-(2-((5-bromo-2-((5-chloro-2-methoxy-4-(4-(4-methylpiperazin-1-yl)piperidin-1-yl)phenyl)amino)pyrimidin-4-yl)amino)-4-chloro-5-fluorophenyl)methanesulfonamide]	500 to 2000	1 to 25	25 to 100	25 to 100	25 to 100	2000 to 10000
COc1nc(N2CCC(N3CCN(C)CC3)CC2)c(C)cc1Nc1ncc(Cl)c(Nc2cc3c(cc2NS(C)(=O)=O)CCO3)n1 [Example 241, N-(6-((5-chloro-2-((2-methoxy-5-methyl-6-(4-(4-methylpiperazin-1-yl)piperidin-1-yl)pyridin-3-yl)amino)pyrimidin-4-yl)amino)-2,3-dihydrobenzofuran-5-yl)methanesulfonamide]	500 to 2000	100 to 500	25 to 100	100 to 500	1 to 25	2000 to 10000
COc1cc(N2CCC(N3CCN(C)CC3)CC2)c(C)cc1Nc1ncc(Cl)c(Nc2cc3c(cc2NS(C)(=O)=O)CCO3)n1 [Example 140, N-(6-((5-chloro-2-((2-methoxy-5-methyl-4-(4-(4-methylpiperazin-1-yl)piperidin-1-yl)phenyl)amino)pyrimidin-4-yl)amino)-2,3-dihydrobenzofuran-5-yl)methanesulfonamide]	100 to 500	25 to 100	1 to 25	1 to 25	25 to 100	500 to 2000
Cc1cc(Nc2ncc(Cl)c(Nc3cc4c(cc3N(C)S(C)(=O)=O)CCO4)n2)c(Cl)cc1N1CCC(N2CCN(C)CC2)CC1 [Example 263, N-(6-((5-chloro-2-((2-chloro-5-methyl-4-(4-(4-methylpiperazin-1-yl)piperidin-1-yl)phenyl)amino)pyrimidin-4-yl)amino)-2,3-dihydrobenzofuran-5-yl)-N-methylmethanesulfonamide]	500 to 2000	500 to 2000	100 to 500	100 to 500	100 to 500	> 10000

Continued, in another order:

GI50 [1] [nM]	GI50 [2] [nM]	GI50 [3] [nM]	GI50 [4] [nM]	GI50 [5] [nM]	SMILES	GI50 [6] [nM]
2000 to 10000	25 to 100	1 to 25	100 to 500	100 to 500	Cc1cc(Nc2ncc(Br)c(Nc3cc(Cl)c(F)cc3NS(C)(=O)=O)n2)c(Cl)cc1N1CCC(N2CCN(C)CC2)CC1 [Example 177, N-(2-((5-bromo-2-((2-chloro-5-methyl-4-(4-(4-methylpiperazin-1-yl)piperidin-1-yl)phenyl)amino)pyrimidin-4-yl)amino)-4-chloro-5-fluorophenyl)methanesulfonamide]	2000 to 10000
100 to 500	1 to 25	100 to 500	1 to 25	25 to 100	COc1cc(N2CCC(N3CCCC(N(C)C)C3)CC2)c(C)cc1Nc1ncc(Cl)c(Nc2cc3c(cc2NS(C)(=O)=O)CCO3)n1 (stereo not drawn) [Example 218, N-(6-((5-chloro-2-((4-(3-(dimethylamino)-[1,4′-bipiperidin]-1′-yl)-2-methoxy-5-methylphenyl)amino)pyrimidin-4-yl)amino)-2,3-dihydrobenzofuran-5-yl)methanesulfonamide]	500 to 2000
100 to 500	1 to 25	25 to 100	100 to 500	100 to 500	Cc1cc(Nc2ncc(Br)c(Nc3ccc4nccnc4c3P(C)(C)=O)n2)c(Cl)cc1N1CCC(N2CCN(C)CC2)CC1 [Example 193, (6-((5-bromo-2-((2-chloro-5-methyl-4-(4-(4-methylpiperazin-1-yl)piperidin-1-yl)phenyl)amino)pyrimidin-4-yl)amino)quinoxalin-5-yl)dimethylphosphine oxide]	500 to 2000
500 to 2000	100 to 500	100 to 500	100 to 500	500 to 2000	COc1cc(N2CCC(N3CCN(C)CC3)CC2)c(C)cc1Nc1ncc(Cl)c(Nc2cc(Cl)ccc2P(C)(C)=O)n1 [Example 153, (4-chloro-2-((5-chloro-2-((2-methoxy-5-methyl-4-(4-(4-methylpiperazin-1-yl)piperidin-1-yl)phenyl)amino)pyrimidin-4-yl)amino)phenyl)dimethylphosphine oxide]	2000 to 10000
1 to 25	1 to 25	1 to 25	1 to 25	1 to 25	COc1cc(N2CCC(N3CCN(C)CC3)CC2)c(Cl)cc1Nc1ncc(Br)c(Nc2cc(Cl)ccc2N(C)S(C)(=O)=O)n1 [Example 156, N-(2-((5-bromo-2-((5-chloro-2-methoxy-4-(4-(4-methylpiperazin-1-yl)piperidin-1-yl)phenyl)amino)pyrimidin-4-yl)amino)-4-chlorophenyl)-N-methylmethanesulfonamide]	100 to 500
500 to 2000	100 to 500	100 to 500	100 to 500	500 to 2000	COc1cc(N2CCC(N3CCC(C(F)(F)F)CC3)CC2)c(C)cc1Nc1ncc(Br)c(Nc2ccc(F)cc2NS(C)(=O)=O)n1 [Example 148, N-(2-((5-bromo-2-((2-methoxy-5-methyl-4-(4-(trifluoromethyl)-[1,4′-bipiperidin]-1′-yl)phenyl)amino)pyrimidin-4-yl)amino)-5-fluorophenyl)methanesulfonamide]	500 to 2000
2000 to 10000	100 to 500	500 to 2000	100 to 500	500 to 2000	COc1cc(N2CCC(N3CCN(C)CC3)CC2)c(Cl)cc1Nc1ncc(Cl)c(Nc2cc(C(C)C)ccc2NS(C)(=O)=O)n1 [Example 161, N-(2-((5-chloro-2-((5-chloro-2-methoxy-4-(4-(4-methylpiperazin-1-yl)piperidin-1-yl)phenyl)amino)pyrimidin-4-yl)amino)-4-isopropylphenyl)methanesulfonamide]	2000 to 10000
100 to 500	1 to 25	1 to 25	100 to 500	25 to 100	COc1cc(N2CCC(N3CCCC(N(C)C)C3)CC2)c(C)cc1Nc1ncc(Br)c(Nc2ccc(F)cc2NS(C)(=O)=O)n1 (stereo not drawn) [Example 39, N-(2-((5-bromo-2-((4-(3-(dimethylamino)-[1,4′-bipiperidin]-1′-yl)-2-methoxy-5-methylphenyl)amino)pyrimidin-4-yl)amino)-5-fluorophenyl)methanesulfonamide]	500 to 2000
